Assay [1] concerns Gram negative non-fermenting bacteria. As to the kind of experiment: Liquid broth assays (MIC and checkerboard), modified ISO 20776-1:2006. Type of assay: cell-based. To be noted: individual chemical; tryptic soy broth, 30° C., 24 hours, OD600; MIC = <25% growth vs positive growth control. An excerpt: (§1) The differing behaviours of inhibitory antimicrobials in isolation and mixtures have been widely explored using the concept of the Fractional Concentration and Fractional Inhibitory Concentration (FIC). See for instance JRW Lambert and R Lambert, J. Appl. Microbiol 95, 734 (2003); T. Jadavji, C G Prober and R Cheung, Antimicrobial Agents and Chemotherapy 26, 91 (1984), and WO 2004/006876. These parameters can be defined as follows: FC(component a)=Concentration of component a tested in the mixture/MIC(component a tested as a single active) FIC(component a)=MIC(component a tested in the mixture)/MIC(component a tested as a single active)
(§2) These relationships can be expressed mathematically by summing the fractional MIC values for all the components present in the mixture to give the “fractional inhibitory index”: ΣFIC=FIC(component 1)+FIC(component 2)
(§3) Liquid broth assays (MIC and checkerboard) were conducted to identify the minimum concentration(s) of individual and binary combinations of preservation chemicals. A modified methodology to ISO 20776-1:2006 was utilised for the screening as follows. Stock solutions of preservation chemicals and tryptic soy broth were inoculated with 1-5×10^6 microorganisms and incubated at 30° C. for 24 hours, after which optical densities at OD600 nm were measured. Microorganisms used for assessed included Gram negative non-fermenting bacteria: Pseudomonas aeruginosa, Pseudomonas putida & Burkholderia cepacia and Gram negative fermenting bacteria: Enterobacter gergoviae & Klebsiella species. […] Preservation chemicals were screened at a concentration range of 0.0156-2%.

Assay [2] concerns Gram negative fermenting bacteria. Described as above. Type of assay: cell-based, Enterobacter gergoviae & Klebsiella species. To be noted: individual chemical; tryptic soy broth, 30° C., 24 hours, OD600; MIC = <25% growth vs positive growth control.
Source text: as §1, §2, §3

Each structure is given as a SMILES string.

Take `C=C(CC(=O)O)C(=O)O` [Itaconic acid]: the “MIC Gram negative non-fermenting bacteria” value in assay [1] worked out at 0.5 wt %. Also, the “MIC Gram negative fermenting bacteria” value in assay [2] is listed as 0.5 wt %.

For the compound `OCc1ccccc1` [Benzyl alcohol, reference compound], the “MIC Gram negative non-fermenting bacteria” value in assay [1] was 0.125 wt %. In assay [2], the “MIC Gram negative fermenting bacteria” value amounted to 0.5 wt %.

`O=C([O-])c1ccccc1.[Na+]` [Sodium benzoate]: the “MIC Gram negative non-fermenting bacteria” value in assay [1] stood at 1 wt %. Besides, in assay [2], the “MIC Gram negative fermenting bacteria” value is 1 wt %.
